Source: ChEMBL document CHEMBL1201862, “PubChem BioAssay data set” (2004)
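96-well plates; 48 h exposure; 5 concentrations. Endpoints by linear interpolation between flanking doses. Not reached: highest tested concentration assigned. GI50: concentration for 50% inhibition of growth.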 Calls of active or inactive are those of the source. No stated cut-off is given here; in the data, active = GI50 up to about 1.1 µM and inactive = higher.

Columns and labels:
Assay in all cases: NCI tumour cell line growth inhibition, 48 h
[1] = test system: SN12C
[2] = test system: TK-10
[3] = test system: HOP-62
[4] = test system: CCRF-CEM
[5] = test system: M14
[6] = test system: MDA-MB-435
[7] = test system: A498
[8] = test system: SF-539
[9] = test system: OVCAR-4
[10] = test system: BT-549
[11] = test system: NCI-H23
[12] = test system: SK-MEL-2
[13] = test system: IGROV-1
[14] = test system: HCT-116
[15] = test system: A549
[16] = test system: NCI-H460
[17] = test system: SK-MEL-5
[18] = test system: MDA-N
[19] = test system: NCI-H226

Measured: GI50

CC1=NN(c2ccccc2)C(=O)/C1=C1\SC(c2ccccc2)(c2ccccc2)c2ccccc21
inactive: [1] > 100 µM | [2] > 100 µM | [3] > 100 µM | [4] > 100 µM | [5] > 100 µM | [6] > 100 µM | [7] > 100 µM | [8] > 100 µM | [9] > 100 µM | [10] > 100 µM | [11] > 100 µM | [12] > 100 µM | [13] > 100 µM | [14] 50.4 µM | [15] > 100 µM | [16] > 100 µM | [17] > 100 µM | [18] > 100 µM | [19] > 100 µM

OCCSCc1cc2c(O)c(c1)Cc1cc(CSCCO)cc(c1O)Cc1cc(CSCCO)cc(c1O)Cc1cc(CSCCO)cc(c1O)C2
inactive: [1] 4.59 µM | [2] 4.8 µM | [3] 5.01 µM | [4] 5.35 µM | [5] 3.08 µM | [6] 2.83 µM | [7] 6.15 µM | [8] 4.02 µM | [9] 3.61 µM | [10] 3.3 µM | [11] 5.37 µM | [12] 2.32 µM | [13] 3.65 µM | [14] 4.02 µM | [15] 4.86 µM | [16] 2.89 µM | [17] 2.69 µM | [18] 3.42 µM | [19] 10.4 µM

O=C1Nc2ccc(Br)cc2/C1=N/c1ccc2c(c1)OCO2
inactive: [1] 19 µM | [2] 27.3 µM | [3] 20.2 µM | [4] 14.7 µM | [5] 20.5 µM | [6] 9.35 µM | [7] 30.6 µM | [8] 18.5 µM | [9] 3.72 µM | [10] 19.8 µM | [11] 37.2 µM | [12] 17.7 µM | [13] 27.4 µM | [14] 17.4 µM | [15] 46.8 µM | [16] 22.5 µM | [17] 16 µM | [18] 15.7 µM | [19] 24.3 µM
